Experimental data from patent US10947252B2, “Inhibitors of KEAP1-Nrf2 protein-protein interaction” (Janssen Pharmaceutica NV, priority 2018, dated 2021).

Experiments:
[1] = target: Kelch domain of human KEAP1 (321-624 aa) (Homo sapiens (Human), UniProt Q14145); test: KEAP1 KELCH ThermoFluor binding assay; conditions: KEAP Kelch […], 1,8-ANS, pH 7.0, average of results obtained, read-out: Tf Kd;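 also: Ligand-induced melting temperature shift of E. coli-expressed KEAP1 Kelch protein, Kd estimated from concentration-response curves of ΔTm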
Sequence of Kelch domain of human KEAP1 (321-624 aa) (Q14145 321-624): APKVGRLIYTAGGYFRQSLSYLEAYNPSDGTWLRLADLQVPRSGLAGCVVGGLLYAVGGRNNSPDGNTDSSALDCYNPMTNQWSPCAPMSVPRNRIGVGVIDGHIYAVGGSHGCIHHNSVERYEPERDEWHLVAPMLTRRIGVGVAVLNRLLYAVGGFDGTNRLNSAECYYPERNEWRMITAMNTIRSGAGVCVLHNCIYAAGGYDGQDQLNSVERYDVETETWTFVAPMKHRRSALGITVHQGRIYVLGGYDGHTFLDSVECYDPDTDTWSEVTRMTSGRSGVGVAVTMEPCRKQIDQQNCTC

[2] = system: Glo-Response ARE-luc2P HEK293 cell line; test: ARE luciferase reporter cell-based assay; conditions: Homo sapiens, HEK293, 24 h, average of results obtained;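 also: luciferase signal tracks Nrf2 activation of the ARE once compounds disrupt KEAP1-Nrf2 binding, read with One-Glo reagent, DMSO serving as low control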

| Structure (SMILES) | Kd [1] | EC50 [2] |
| --- | --- | --- |
| CC[C@@H]1CN(Cc2nc([C@H](CC(=O)O)c3ccc4c(nnn4C4CC4)c3C)ccc2C)S(=O)(=O)c2cccnc2O1 (single isomer, unassigned) [Example 176, (*R)-3-(1-Cyclopropyl-4-methyl-1H-benzo[d][1,2,3]triazol-5-yl)-3-(6-(((R)-4-ethyl-1,1-dioxido-3,4-dihydro-2H-pyrido[2,3-b][1,4,5]oxathiazepin-2-yl)methyl)-5-methylpyridin-2-yl)propanoic Acid] | < 1 nM | 31 nM |
| Cc1ccc(C(CC(=O)O)c2ccn3c(C(F)(F)F)nnc3c2C)cc1CN1CC2(CC2)N(C)c2ncccc2S1(=O)=O (racemic) [Example 183, (R/S)-3-(4-Methyl-3-((5′-methyl-1′,1′-dioxido-5′H-spiro[cyclopropane-1,4′-pyrido[2,3-f][1,2,5]thiadiazepin]-2′(3′H)-yl)methyl)phenyl)-3-(8-methyl-3-(trifluoromethyl)-[1,2,4]triazolo[4,3-a]pyridin-7-yl)propanoic Acid] | 1.6 nM | 370 nM |
| CCn1nnc2c(C)c([C@@H](c3cc(CN4CC5(CC5)Oc5ncc(C)cc5S4(=O)=O)c(C)cn3)C(C)(C)C(=O)O)ccc21 (single isomer, unassigned) [Example 665, (*R)-3-(1-Ethyl-4-methyl-1H-benzo[d][1,2,3]triazol-5-yl)-2,2-dimethyl-3-(5-methyl-4-((8′-methyl-1′,1′-dioxidospiro[cyclopropane-1,4′-pyrido[2,3-b][1,4,5]oxathiazepin]-2′(3′H)-yl)methyl)pyridin-2-yl)propanoic Acid] | 180 nM | 497 nM |
| Cc1ccc(C(CC(=O)O)c2ccn3c(C(F)(F)F)nnc3c2C)cc1CN1C[C@H]2CCCN2c2ccccc2S1(=O)=O (stereo partly drawn) [Example 265, 3-(3-(((R)-5,5-Dioxido-7a,8,9,10-tetrahydrobenzo[f]pyrrolo[2,1-d][1,2,5]thiadiazepin-6(7H)-yl)methyl)-4-methylphenyl)-3-(8-methyl-3-(trifluoromethyl)-[1,2,4]triazolo[4,3-a]pyridin-7-yl)propanoic Acid] | < 1 nM | 31.2 nM |
| Cc1ccc([C@H](CC(=O)O)c2ccn3c(C(F)(F)F)nnc3c2C)cc1CN1CC2(COC2)Oc2ccccc2S1(=O)=O (single isomer, unassigned) [Example 26, (*S)-3-(3-((1,1-Dioxidospiro[benzo[b][1,4,5]oxathiazepine-4,3′-oxetan]-2(3H)-yl)methyl)-4-methylphenyl)-3-(8-methyl-3-(trifluoromethyl)-[1,2,4]triazolo[4,3-a]pyridin-7-yl)propanoic Acid] | 0.174 nM | 32 nM |
| Cc1ccc([C@H](c2ccn3c(C(F)(F)F)nnc3c2C)C(C)(C)C(=O)O)cc1CN1CC2(CCOCC2)Oc2nc(N[C@@H](C)CCO)ccc2S1(=O)=O (single isomer, unassigned) [Example 122, (*R)-3-(3-((7′-(((S)-4-Hydroxybutan-2-yl)amino)-1′,1′-dioxido-2,3,5,6-tetrahydrospiro[pyran-4,4′-pyrido[2,3-b][1,4,5]oxathiazepin]-2′(3′H)-yl)methyl)-4-methylphenyl)-2,2-dimethyl-3-(8-methyl-3-(trifluoromethyl)-[1,2,4[triazolo[4,3-a]pyridine-7-yl)propanoic Acid] | 8930 nM | 13000 nM |
| Cc1ccc([C@@H](c2ccn3c(C(F)F)nnc3c2C)C(C)(C)C(=O)O)cc1CN1CC2(CC2)Oc2nc(OCCN3CCCC3)c(C)cc2S1(=O)=O (single isomer, unassigned) [Example 375, (*S)-3-(3-(Difluoromethyl)-8-methyl-[1,2,4]triazolo[4,3-a]pyridine-7-yl)-2,2-dimethyl-3-(4-methyl-3-((8′-methyl-1′,1′-dioxido-7′-(2-(pyrrolidin-1-yl)ethoxy)spiro[cyclopropane-1,4′-pyrido[2,3-b][1,4,5]oxathiazepin]-2′(3′H)-yl)methyl)phenyl)propanoic Acid] | < 1 nM | 11.5 nM |
| Cc1cnc2c(c1)S(=O)(=O)N(Cc1cc([C@H](c3ccc4c(nnn4C4CC4)c3C)C(C)(C)C(=O)O)cnc1C)CC1(CC1)O2 (single isomer, unassigned) [Example 396, (*R)-3-(1-Cyclopropyl-4-methyl-1H-benzo[d][1,2,3]triazol-5-yl)-2,2-dimethyl-3-(6-methyl-5-((8′-methyl-1′,1′-dioxidospiro[cyclopropane-1,4′-pyrido[2,3-b][1,4,5]oxathiazepin]-2′(3′H)-yl)methyl)pyridin-3-yl)propanoic Acid] | 21800 nM | 4900 nM |
| Cc1ccc([C@@H](c2ccn3c(C(F)(F)F)nnc3c2C)C(C)(C)C(=O)O)cc1CN1C[C@@]2(CCOC2)Oc2ncccc2S1(=O)=O (single isomer, unassigned) [Example 382, (*S)-3-(3-(((*R)-1′,1′-Dioxido-4,5-dihydro-2H-spiro[furan-3,4′-pyrido[2,3-b][1,4,5]oxathiazepin]-2′(3′H)-yl)methyl)-4-methylphenyl)-2,2-dimethyl-3-(8-methyl-3-(trifluoromethyl)-[1,2,4]triazolo[4,3-a]pyridin-7-yl)propanoic Acid] | < 1 nM | 1.8 nM |
| Cc1ccc([C@H](CC(=O)O)c2ccn3c(C(F)F)nnc3c2C)cc1CN1CC2(COC2)Oc2ccccc2S1(=O)=O (single isomer, unassigned) [Example 467, (*S)-3-(3-(Difluoromethyl)-8-methyl-[1,2,4]triazolo[4,3-a]pyridin-7-yl)-3-(3-((1,1-dioxidospiro[benzo[b][1,4,5]oxathiazepine-4,3′-oxetan]-2(3H)-yl)methyl)-4-methylphenyl)propanoic Acid] | < 1 nM | 79.3 nM |
| Cc1ccc([C@@H](CC(=O)O)c2ccn3c(C(F)(F)F)nnc3c2C)cc1CN1CC2(COC2)Oc2ncccc2S1(=O)=O (single isomer, unassigned) [Example 261, (*R)-3-(3-((1′,1′-Dioxidospiro[oxetane-3,4′-pyrido[2,3-b][1,4,5]oxathiazepin]-2′(3′H)-yl)methyl)-4-methylphenyl)-3-(8-methyl-3-(trifluoromethyl)-[1,2,4]triazolo[4,3-a]pyridin-7-yl)propanoic Acid] | < 1 nM | 1390 nM |
| CCc1c([C@@H](CC(=O)O)c2ccc(C)c(CN3C[C@H]4CCCCN4c4ncc(C)cc4S3(=O)=O)c2)ccn2c(C(F)(F)F)nnc12 (single isomer, unassigned) [Example 516, (*S)-3-(8-Ethyl-3-(trifluoromethyl)-[1,2,4]triazolo[4,3-a]pyridin-7-yl)-3-(4-methyl-3-(((*R)-3-methyl-5,5-dioxido-7,7a,8,9,10,11-hexahydro-6H-dipyrido[2,1-d:2′,3′-f][1,2,5]thiadiazepin-6-yl)methyl)phenyl)propanoic Acid] | < 1 nM | 11.1 nM |
| Cc1cc2cc([C@H](CC(=O)O)c3ccc(C)c(CN4C[C@H]5CCCN5c5ncccc5S4(=O)=O)c3)n(C)c2nn1 (single isomer, unassigned) [Example 436, (*R)-3-(3,7-Dimethyl-7H-pyrrolo[2,3-c]pyridazin-6-yl)-3-(3-(((R)-5,5-dioxido-7a,8,9,10-tetrahydropyrido[2,3-f]pyrrolo[2,1-d][1,2,5]thiadiazepin-6(7H)-yl)methyl)-4-methylphenyl)propanoic Acid] | < 1 nM | 2230 nM |
| Cc1cnc2c(c1)S(=O)(=O)N(Cc1cc([C@@H](c3ccn4c(C(F)(F)F)nnc4c3C)C(C)(C)C(=O)O)ccc1C)C[C@]1(CCOC1)O2 (single isomer, unassigned) [Example 383, (*S)-2,2-Dimethyl-3-(4-methyl-3-(((*S)-8′-methyl-1′,1′-dioxido-4,5-dihydro-2H-spiro[furan-3,4′-pyrido[2,3-b][1,4,5]oxathiazepin]-2′(3′H)-yl)methyl)phenyl)-3-(8-methyl-3-(trifluoromethyl)-[1,2,4]triazolo[4,3-a]pyridin-7-yl)propanoic Acid] | < 1 nM | 1.2 nM |
| Cc1cnc2c(c1)S(=O)(=O)N(Cc1cc(C(c3ccc4c(nnn4C4CC4)c3C)C(C)(C)C(=O)O)cnc1C)CC1(CCOCC1)O2 (racemic) [Example 227, (R/S)-3-(1-Cyclopropyl-4-methyl-1H-benzo[d][1,2,3]triazol-5-yl)-2,2-dimethyl-3-(6-methyl-5-((8′-methyl-1′,1′-dioxido-2,3,5,6-tetrahydrospiro[pyran-4,4′-pyrido[2,3-b][1,4,5]oxathiazepin]-2′(3′H)-yl)methyl)pyridin-3-yl)propanoic Acid] | < 1 nM | 22 nM |
| Cc1ccc([C@H](c2ccn3c(C(F)(F)F)nnc3c2C)C(C)(C)C(=O)O)cc1CN1CC2(CCOCC2)Oc2nc(NC3CC(O)C3)c(C)cc2S1(=O)=O (stereo in doubt) [Example 125, (*R)-3-(3-((7′-(((1s,3S)-3-Hydroxycyclobutyl)amino)-8′-methyl-1′,1′-dioxido-2,3,5,6-tetrahydrospiro[pyran-4,4′-pyrido[2,3-b][1,4,5]oxathiazepin]-2′(3′H)-yl)methyl)-4-methylphenyl)-2,2-dimethyl-3-(8-methyl-3-(trifluoromethyl)-[1,2,4]triazolo[4,3-a]pyridine-7-yl)propanoic Acid] | < 1 nM | 140 nM |
| Cc1ccc([C@H](c2ccn3c(C(F)(F)F)nnc3c2C)C(C)(C)C(=O)O)cc1CN1CC2(CCOCC2)Oc2nc(NC3CC(O)C3)c(C)cc2S1(=O)=O (single isomer, unassigned) [Example 361, (*R)-3-(3-((7′-(((1R,3R)-3-Hydroxycyclobutyl)amino)-8′-methyl-1′,1′-dioxido-2,3,5,6-tetrahydrospiro[pyran-4,4′-pyrido[2,3-b][1,4,5]oxathiazepin]-2′(3′H)-yl)methyl)-4-methylphenyl)-2,2-dimethyl-3-(8-methyl-3-(trifluoromethyl)-[1,2,4]triazolo[4,3-a]pyridine-7-yl)propanoic Acid] | < 1 nM | 60.4 nM |
